Data published in patent publication US10744119B1, “Inhibitors of the malarial GST” (University of Puerto Rico, priority 2014, dated 2020).
pEC50: −log10 of the molar value. Read-outs that look alike come from different tables or passages of the source.

Key:
P. berghei blood stages [1] = details: read-out: EC50, published results; published value; cited from earlier work
P. berghei GST (pbGST) = P. berghei GST (pbGST) (Plasmodium berghei, UniProt A0A509AJX5); assay: Inhibition of GST activity (CDNB/GSH, 340 nm) in P. berghei protein extracts; type: biochemical; details: for inhibitory activity on pbGST: 1, 10 and 50 μM, duplicate (n=2), more marked effect at 50 μM
Chain of P. berghei GST (pbGST) (A0A509AJX5 entry or part of it): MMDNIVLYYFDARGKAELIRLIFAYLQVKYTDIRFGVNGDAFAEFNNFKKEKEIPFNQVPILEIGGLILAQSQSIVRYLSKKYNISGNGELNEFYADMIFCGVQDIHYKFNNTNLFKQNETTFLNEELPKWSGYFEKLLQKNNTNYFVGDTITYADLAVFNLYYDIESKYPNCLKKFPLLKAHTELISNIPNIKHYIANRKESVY
Description: Glutathione S-transferase Activity in Blood Stage Parasites: The parasite extracts were prepared as the method described in the Protein for Enzymatic Activity. The enzymatic activity was determined spectroscopically using the chromogenic substrate 1-chloro-2,4-dinitrobenzene (CDNB) from Sigma-Aldrich®. The GST activity was assayed at 25° C. in P. berghei protein extracts by monitoring the increase in absorbance at 340 nm on the basis of the extinction coefficient for the product S-(2,4-dinitrophenyl) glutathione (ε340 nm=9.6 mM^−1 cm^−1). The absorbance was measured in a 96-well plate (UV flat bottom Microtiter®, from Thermo Scientific) using the SpectraMax® M3 Microplate Reader (Molecular Devices). The parasite extract (0.65 mg/mL) and 1 mM CDNB were added to a 100 mM potassium phosphate (pH 6.5) buffer. The reaction was started by adding 1 mM GSH. To detect any residual GST activity associated with the parasite extract, blank reactions as controls (no GSH) were included. The Enzyme activity is reported as units (micromole of GSH/min)/mg of protein. This assay was standardized using the human placenta GST from Sigma-Aldrich® (Cat No. G8642) and used as positive control.
The compounds stock solutions were prepared in 100% DMSO. […] The half maximal inhibitory concentration (IC50) values were calculated using the non-linear regression function for sigmoidal dose-response (variable slope). Inhibition curves of pbGST was done in two independent experiments with one replicate each (n=2) whereas the inhibition curves of hGST was determined in three independent experiments in triplicate (n=9). […] GraphPad Prism software (Graph-Pad software, Inc., US, Mac Version 6) was used to make the graph and to perform the statistical analyses.
The GSK TCAMS compounds dilutions were prepared in DMSO and the final concentration of DMSO in the assay was 0.5%. Inhibition of pbGST by the GSK TCAMS compounds were determined by adding variable concentration of compounds (1, 10 and 50 μM) with a fixed P. berghei protein extracts concentration (0.65 mg/mL) in a total volume of 200 μL containing 1 mM CDNB and 100 mM potassium phosphate buffer (pH 6.5) at 25° C. The reaction was started by adding 1 mM GSH and activity was measured spectroscopically at 340 nm absorbance. The data obtained by varying compound concentration was analyzed using a column bar graph. Inhibition of pbGST by the GSK TCAMS compounds was done in duplicate. One GSK TCAMS compound, TCMDC-124132, was analyzed against the hGST in two independent experiments in triplicate (n=6). A statistical analysis was done using the GraphPad Prism software (Graph-Pad software, Inc., US, Mac Version 6). […]

P. berghei blood stages [2] = assay: Plasmodium berghei in vitro drug luminescence (ITDL) assay; type: cell-based; details: read-out: EC50, growth inhibition of P. berghei blood stages
Description: The compounds were received as 10 mM stocks dissolved in 100% DMSO. These stocks were stored at −20° C. The DMSO stock compounds were diluted in complete culture medium (RPMI1640 medium supplemented with 20% FBS from Gibco® heat-inactivated and Neomycin stock solution of 10,000 IU/mL from Sigma-Aldrich®) for use in the Plasmodium berghei in vitro drug luminescence assay. For initial testing, the compounds were used at the following concentration: 0.01 μM, 0.1 μM, 1 μM and 10 μM; in triplicate point to determine the inhibition curve for each compound.
This assay measures the in vitro development of P. berghei ring stage into mature schizonts in the presence of inhibitors/drugs. The Swiss-CD1 female mice were infected with the GFP-luc parasite line. The GFP-luc parasite line allows determination of the luciferase activity in the cultured mature schizonts, which is directly proportional to the number of schizonts. When the parasitemia reaches 1-3%, the RBCs were collected from the infected mice and used to perform the assay. The susceptibility of blood stages parasites was determined in the presence of standard GST inhibitors and the TCAMS compounds identified from the VLS. […] The standard GST inhibitors were weighed and dissolved in 100% DMSO to prepare the stock solution. Dilutions of the standard GST inhibitors were freshly prepared in complete culture medium (RPMI1640 medium supplemented with 20% FBS from Gibco® heat-inactivated and Neomycin stock solution of 10,000 IU/mL from Sigma-Aldrich®) for each assay. The dilutions of the inhibitors were added to the wells in triplicates, 50 μL per well. Chloroquine diphosphate salt from Sigma-Aldrich® was used as a control (at a concentration of 100 nM) for complete inhibition of blood stage development. Further, infected blood was collected from one mouse by cardiac puncture under anesthesia early in the morning (between 9:00-10:[…]). The blood was added to a 50 mL tube containing 5 mL complete culture medium supplemented with 300 μL heparin stock solution (25,000 U/mL). The blood was centrifuged for 8 min at 450×g and the supernatant was removed. The blood was resuspended in a complete culture medium comprising a concentration of 2% (v/v). In the next step, 50 μL of the blood suspension was added in each well containing the inhibitors dilutions. The 96-well black culture plates containing the infected blood solution were placed into a candle jar. The candle jar was carefully flushed with a gas mixture of 5% CO2, 5% O2, 90% N2 using a 0.22 μm filter unit connected to the gas hose for 2 minutes. The lid was tightly closed immediately after gassing. The infected blood suspension was incubated at 37° C. with continuous agitation (enough to keep the cells suspended) for 24 hours allowing the ring stages to develop into the mature schizonts. After the culture period, the schizonts were evaluated by microscopic examination of Diff Quick-stained thin blood smears. The 96-well plate was centrifuged at 1,000×g for 5 minutes. The supernatant was removed using a syringe needle on those sides of the wells without red blood cell after spinning. The luciferase activity was measured in cultured mature schizonts using the Luciferase Assay System Kit from Promega (Cat. No. E1500). The RBCs were lysed by adding 50 μL of 1× cell culture lysis reagent into each well. The plate was shaken for 5 minutes to assure complete lysis. Afterward, 50 μL of the luciferase assay reagent was added. The luminescence was measured using the SpectraMax® M3 Microplate Reader (Molecular Devices). […] The data was analyzed and used to generate standard in vitro inhibition curves, and EC50 values of each compound were calculated. Preliminary data analyses were performed using Microsoft Excel and the effective concentration (50% of the maximal inhibition; EC50 values) were calculated using GraphPad Prism software (Graph-Pad software, Inc., US, Mac Version 6).

[3] = target: T1, human placenta GST (hGST) (Homo sapiens, UniProt P09211); assay: Inhibition of GST activity (CDNB/GSH, 340 nm) of human placenta GST; type: biochemical
T1 construct: the human placenta GST from Sigma-Aldrich® (Cat No. G8642); purchased Sigma-Aldrich G8642; host or cells: human placenta (tissue-derived)
T1 sequence (P09211 2-210 limits assumed): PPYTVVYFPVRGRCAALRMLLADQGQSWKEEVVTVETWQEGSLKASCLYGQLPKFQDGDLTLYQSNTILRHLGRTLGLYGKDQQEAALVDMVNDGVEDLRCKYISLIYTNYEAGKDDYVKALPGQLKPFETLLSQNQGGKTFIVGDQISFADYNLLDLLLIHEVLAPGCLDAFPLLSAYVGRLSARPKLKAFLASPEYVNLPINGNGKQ
Description: Glutathione S-transferase Activity in Blood Stage Parasites: The parasite extracts were prepared as the method described in the Protein for Enzymatic Activity. The enzymatic activity was determined spectroscopically using the chromogenic substrate 1-chloro-2,4-dinitrobenzene (CDNB) from Sigma-Aldrich®. The GST activity was assayed at 25° C. in P. berghei protein extracts by monitoring the increase in absorbance at 340 nm on the basis of the extinction coefficient for the product S-(2,4-dinitrophenyl) glutathione (ε340 nm=9.6 mM^−1 cm^−1). The absorbance was measured in a 96-well plate (UV flat bottom Microtiter®, from Thermo Scientific) using the SpectraMax® M3 Microplate Reader (Molecular Devices). […]
The compounds stock solutions were prepared in 100% DMSO. […] The half maximal inhibitory concentration (IC50) values were calculated using the non-linear regression function for sigmoidal dose-response (variable slope). Inhibition curves of pbGST was done in two independent experiments with one replicate each (n=2) whereas the inhibition curves of hGST was determined in three independent experiments in triplicate (n=9). […]
The GSK TCAMS compounds dilutions were prepared in DMSO and the final concentration of DMSO in the assay was 0.5%. […] The reaction was started by adding 1 mM GSH and activity was measured spectroscopically at 340 nm absorbance. […]

[4] = ring stage to mature schizont development, 24 hours, luciferase readout, three independent experiments

Row | SMILES | inhibitory activity on pbGST (P. berghei GST (pbGST)) | pEC50 (P. berghei blood stages [2]; [4]) | also measured
1 | CCN(CC)CCCC(C)Nc1ccnc2cc(Cl)ccc12 (centres unmarked) [Chloroquine] | – | – | pEC50 (P. berghei blood stages [1]): 7.70
2 | COc1ccc2nccc([C@@H](O)CN3CCC(NC(=O)c4cc5c(F)cc(F)cc5[nH]4)CC3)c2n1 [Compound 6] | No inhibitory activity | 5.83 | –
3 | c1ccc2[nH]c(CN(Cc3nc4ccccc4[nH]3)Cc3nc4ccccc4[nH]3)nc2c1 [Compound 8] | tendency of inhibition | 5.94 | inhibitory activity on human placenta GST ([3]; at 50 μM and 100 μM, statistical difference at 100 μM, n=6): tendency of inhibition
4 | Oc1ccc(CCNc2nc(NCc3ccccc3-c3ccc(C(F)(F)F)cc3)nc(N3CCNCC3)n2)cc1 [Compound 12] | – | 5.52 | –
5 | CCCCCCSC[C@H](NC(=O)CC[C@H](N)C(=O)O)C(=O)NCC(=O)O [S-hexylglutathione, reference compound] | – | – | inhibition at 50 µM (P. berghei GST (pbGST); 50 μM compound): 50%; inhibition at 50 µM ([3]; 50 μM compound): 50%; pEC50 (P. berghei blood stages [2]; Plasmodium berghei, 24 h): 5.16
6 | O=C1Nc2cccc3c2C1(CCCCN1CCC(c2cc4ccncc4[nH]2)CC1)CCC3 (centres unmarked) [TCMDC-141151/TCMDC-141221] | No inhibitory activity | 5.98 | –
7 | COc1cc(/C=C/C(=O)CC(=O)/C=C/c2ccc(O)c(OC)c2)ccc1O [curcumin, reference compound] | – | – | pEC50 (P. berghei blood stages [2]; Plasmodium berghei, 24 h): 4.82
8 | C=C(CC)C(=O)c1ccc(OCC(=O)O)c(Cl)c1Cl [ethacrynic acid, reference compound] | – | – | pEC50 (P. berghei blood stages [2]; Plasmodium berghei, ring stage to mature schizont development, 24 hours, luciferase readout, three independent experiments): 4.83
